The values below come from patent US20200262813A1, “1,5,7-TRISUBSTITUTED ISOQUINOLINE DERIVATIVES, PREPARATION THEREOF, AND USE THEREOF IN MEDICINES” (SHANGHAI HAIYAN PHARMACEUTICAL TECHNOLOGY CO., LTD., priority 2016, published 2020).

This test concerns the target Recombinant PRC2 (EZH2-Y641F) (Homo sapiens, UniProt Q15910, Y641F). Put plainly: In vitro methyltransferase activity test (LANCE Ultra).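 Also: compounds tested as an 8-point threefold dilution series, fluorescence read after 1 h detection step at room temperature, IC50 derived from a four-parameter curve fit.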 To be noted: LANCE Ultra detection, 3 hours reaction.
Where [1] appears, read: EZH2 Y641F IC50, Recombinant PRC2 (EZH2-Y641F).
[2] abbreviates: read-out: EZH2 Y641F IC50, Recombinant PRC2 (EZH2-Y641F).

The structures appear in SMILES notation. Like-named read-outs stand apart in the source and are kept apart here.

Sequence of Recombinant PRC2 (EZH2-Y641F) (Q15910 whole entry Y641F): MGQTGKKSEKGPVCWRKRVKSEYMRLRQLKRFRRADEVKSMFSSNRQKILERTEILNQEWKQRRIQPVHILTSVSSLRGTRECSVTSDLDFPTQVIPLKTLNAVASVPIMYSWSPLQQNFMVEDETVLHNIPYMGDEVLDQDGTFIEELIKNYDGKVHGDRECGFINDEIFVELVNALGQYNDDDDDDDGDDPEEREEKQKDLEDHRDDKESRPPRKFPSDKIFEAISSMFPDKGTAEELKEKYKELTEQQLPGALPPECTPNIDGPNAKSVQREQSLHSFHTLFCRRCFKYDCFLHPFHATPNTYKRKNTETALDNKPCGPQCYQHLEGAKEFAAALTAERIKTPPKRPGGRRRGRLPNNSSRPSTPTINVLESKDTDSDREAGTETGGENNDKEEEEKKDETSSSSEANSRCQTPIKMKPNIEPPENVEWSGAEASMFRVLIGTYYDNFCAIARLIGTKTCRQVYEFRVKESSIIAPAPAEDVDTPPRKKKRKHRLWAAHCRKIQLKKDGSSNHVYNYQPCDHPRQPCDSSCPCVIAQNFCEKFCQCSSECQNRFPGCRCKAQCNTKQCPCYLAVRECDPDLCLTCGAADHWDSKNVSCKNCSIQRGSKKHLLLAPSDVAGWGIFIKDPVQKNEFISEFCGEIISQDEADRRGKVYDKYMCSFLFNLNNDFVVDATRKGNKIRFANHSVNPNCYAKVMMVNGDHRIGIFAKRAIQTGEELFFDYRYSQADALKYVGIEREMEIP
Sequence of Recombinant PRC2 (EZH2-Y641F) (O75530 whole entry partner): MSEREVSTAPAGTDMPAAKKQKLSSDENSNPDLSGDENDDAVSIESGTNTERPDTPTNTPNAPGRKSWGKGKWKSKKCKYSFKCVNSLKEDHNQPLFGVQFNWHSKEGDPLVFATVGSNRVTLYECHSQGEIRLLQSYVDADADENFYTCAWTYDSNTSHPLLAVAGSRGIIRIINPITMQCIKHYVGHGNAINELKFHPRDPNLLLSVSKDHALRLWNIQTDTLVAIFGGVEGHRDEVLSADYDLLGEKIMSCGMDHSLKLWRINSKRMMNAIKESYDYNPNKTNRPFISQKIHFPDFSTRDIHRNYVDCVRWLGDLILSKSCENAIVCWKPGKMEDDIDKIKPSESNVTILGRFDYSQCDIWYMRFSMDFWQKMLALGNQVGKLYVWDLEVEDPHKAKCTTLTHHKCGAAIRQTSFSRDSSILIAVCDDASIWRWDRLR
Sequence of Recombinant PRC2 (EZH2-Y641F) (Q15022 whole entry partner): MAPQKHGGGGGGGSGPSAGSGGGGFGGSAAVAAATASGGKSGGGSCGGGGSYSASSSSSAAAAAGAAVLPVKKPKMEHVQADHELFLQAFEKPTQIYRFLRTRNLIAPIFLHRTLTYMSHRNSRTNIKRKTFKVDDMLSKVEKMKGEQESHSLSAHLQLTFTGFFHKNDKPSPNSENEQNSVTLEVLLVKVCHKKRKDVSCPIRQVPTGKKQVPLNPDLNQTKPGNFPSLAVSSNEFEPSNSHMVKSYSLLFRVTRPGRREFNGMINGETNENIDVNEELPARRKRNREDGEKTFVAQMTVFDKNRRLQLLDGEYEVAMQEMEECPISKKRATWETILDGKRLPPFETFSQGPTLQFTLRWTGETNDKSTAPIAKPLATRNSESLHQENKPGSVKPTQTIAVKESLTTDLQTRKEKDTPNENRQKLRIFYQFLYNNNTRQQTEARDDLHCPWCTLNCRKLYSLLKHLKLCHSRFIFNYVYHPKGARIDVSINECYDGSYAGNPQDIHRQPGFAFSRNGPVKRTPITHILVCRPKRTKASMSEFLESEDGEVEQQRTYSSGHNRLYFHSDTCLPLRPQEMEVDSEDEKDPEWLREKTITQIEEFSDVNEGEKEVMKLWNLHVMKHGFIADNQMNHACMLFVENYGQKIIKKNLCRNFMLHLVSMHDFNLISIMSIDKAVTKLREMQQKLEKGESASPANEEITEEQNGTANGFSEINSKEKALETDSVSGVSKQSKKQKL
Sequence of Recombinant PRC2 (EZH2-Y641F) (Q09028 whole entry partner): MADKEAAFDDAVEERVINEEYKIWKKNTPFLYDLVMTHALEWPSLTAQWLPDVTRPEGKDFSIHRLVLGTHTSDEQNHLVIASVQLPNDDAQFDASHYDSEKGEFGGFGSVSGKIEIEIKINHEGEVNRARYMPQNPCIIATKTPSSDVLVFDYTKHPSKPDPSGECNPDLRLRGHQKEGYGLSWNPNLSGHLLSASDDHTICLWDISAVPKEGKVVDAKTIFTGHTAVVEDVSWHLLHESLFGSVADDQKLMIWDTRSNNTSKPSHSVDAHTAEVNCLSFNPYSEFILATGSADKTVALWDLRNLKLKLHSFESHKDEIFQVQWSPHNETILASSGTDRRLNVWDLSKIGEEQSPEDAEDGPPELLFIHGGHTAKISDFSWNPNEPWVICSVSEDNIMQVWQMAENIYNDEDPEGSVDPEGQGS
Sequence of Recombinant PRC2 (EZH2-Y641F) (Q6ZN18 whole entry partner): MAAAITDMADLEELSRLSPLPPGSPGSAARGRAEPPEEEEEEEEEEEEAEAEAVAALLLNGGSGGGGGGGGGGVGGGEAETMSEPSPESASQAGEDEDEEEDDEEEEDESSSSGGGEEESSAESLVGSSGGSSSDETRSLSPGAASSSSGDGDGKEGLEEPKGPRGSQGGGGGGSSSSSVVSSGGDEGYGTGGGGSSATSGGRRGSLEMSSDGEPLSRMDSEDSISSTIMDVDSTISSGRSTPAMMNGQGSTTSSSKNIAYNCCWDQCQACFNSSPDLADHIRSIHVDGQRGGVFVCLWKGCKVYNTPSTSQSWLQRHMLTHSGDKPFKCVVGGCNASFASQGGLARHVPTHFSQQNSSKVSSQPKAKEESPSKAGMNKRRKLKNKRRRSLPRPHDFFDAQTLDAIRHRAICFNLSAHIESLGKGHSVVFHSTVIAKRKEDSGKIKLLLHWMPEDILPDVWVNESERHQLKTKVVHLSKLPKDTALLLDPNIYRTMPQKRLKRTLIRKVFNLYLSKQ
Description: In Vitro Methyltransferase Activity Test
Recombinant PRC2 (EZH2-Y641F) was purchased from Active motif, S-adenosyl-methionine (SAM) and Poly-L-lysine (PLL) were purchased from Sigma-Aldrich, H3(1-50)K27mel polypeptide was purchased from Cisbio. LANCEUltra system (Perkinelmer) was used for detection. In the enzyme activity test, a compound to be tested was 1:3 diluted for 8 gradient points, added into a reaction plate, and then added 100 ng recombinant enzyme. And then a buffer [20 mM Tris pH8.5, 2 mM MgCl2, 0.01% Tween-20, 1 mM TCEP] containing 2.5 M SAM/250 nM H3(1-50)K27mel premixture was added to conduct an enzyme reaction at room tempreture. After reacted for 3 hours, a dection solution containing premixed PLL, detection antibody and Ulight was added, reacted for 1 h at RT, then fluorescence was read on Tecan infinite pro. IC50s were calculated by four-factor model fitting in a XLfit software.

Usually IC50 stands for the concentration that inhibits the measured activity by half. Turning to `CCN(c1cc(C2=CCN(C)CC2)cc2c(NCc3c(C)cc(C)[nH]c3=O)nccc12)C1CCC(N(C)C)CC1` (stereo not drawn) [Compound Z-61], the IC50 under setting [1] amounted to 12 nM. The same measure, in the same setting: then `CCN(c1cc(-c2ccc(N3CCN(C)CC3)nc2)cc2c(NCc3c(C)cc(C)[nH]c3=O)nccc12)C1CCOCC1` [Compound Z-24], with 152 nM. Still for that read-out and setting: with `CCN(c1cc(C(=O)NC2CCN(C)CC2)cc2c(NCc3c(C)cc(C)[nH]c3=O)nccc12)C1CCOCC1` [Compound Z-163] the figure was 33 nM. On the same count and under the same terms, then `CCN(c1cc(C(=O)N(C)C2CCN(C)CC2)cc2c(NCc3c(C)cc(C)[nH]c3=O)nccc12)C1CCOCC1` [Compound Z-169], with 451 nM; and `CCN(c1cc(-c2ccc(Oc3cccnc3)cc2)cc2c(NCc3c(C)cc(C)[nH]c3=O)nccc12)C1CCC(N(C)C)CC1` (stereo not drawn) [Compound Z-78], with 198 nM; and `CCN(c1cc(-c2ccc(CN3CCNCC3)cc2)cc2c(NCc3c(C)cc(C)[nH]c3=O)nccc12)C1CCOCC1` [Compound Z-8, 3-((5-(ethyl (tetrahydro-2H-pyran-4-yl)amino)-7-(4-(piperazin-1-ylmethyl)phenyl)isoquinoline-1-ylamino)methyl)-4,6-dimethyl-2(1H)-one], with 86 nM. As for `CCN(c1cc(-c2ccc(NC3CCN(C)CC3)cc2)cc2c(NCc3c(C)cc(C)[nH]c3=O)nccc12)C1CCOCC1` [Compound Z-158], the IC50 under setting [1] came out at 367 nM.

In the case of `CCN(c1c(F)c(-c2ccc(N3CCN(C)CC3)nc2)cc2c(NCc3c(C)cc(C)nc3O)nccc12)[C@H]1CC[C@@H](N(C)C)CC1` [Compound Z-231, 3-((5-(((1S,4S)-4-(dimethylamino)cyclohexyl) (ethyl)amino)-6-fluoro-7-(6-(4-methylpiperazin-1-yl)pyridin-3-yl)isoquinolin-1-ylamino)methyl)-4,6-dimethyl-2(1H)-one], the IC50 under setting [1] came out at 174 nM. `CCN(c1cc(-c2ccc(N3CCN(C)CC3)nc2)cc2c(NCc3c(C)cc(C)[nH]c3=O)nccc12)C1CCC(NC(C)=O)CC1` (stereo not drawn) [Compound Z-225, N-(4-((1-((4,6-dimethyl-2-oxo-1,2-dihydropyridin-3-yl)methylamino)-7-(6-(4-methylpiperazin-1-yl)pyridin-3-yl)isoquinolin-5-yl) (ethyl)amino)cyclohexyl) acetamide]: the IC50 under setting [1] worked out at 68 nM. `CCN(c1cc(-c2ccc(CN3CCNCC3)cc2)cc2c(NCc3c(C)cc(C)[nH]c3=O)nccc12)C1CCC(N(C)C)CC1` (stereo not drawn) [Compound Z-153]: under setting [1], the IC50 turned out to be 54 nM. On the same count and under the same terms, with `CCN(c1cc(Cl)cc2c(NCc3c(C)cc(C)[nH]c3=O)nccc12)C1CCN(C(C)=O)CC1` [Compound Z-144] the figure was 152 nM; with `CCN(c1cc(C(=O)Nc2ccccn2)cc2c(NCc3c(C)cc(C)[nH]c3=O)nccc12)C1CCOCC1` [Compound Z-164], 371 nM. On the same count and under the same terms, then `CCN(c1cc(Br)cc2c(NCc3c(C)cc(C)[nH]c3=O)nccc12)C1CCC(N(C)C)CC1` (stereo not drawn) [Compound Z-15, 3-((7-bromo-5-((4-(dimethylamino)cyclohexyl) (ethyl)amino)isoquinolin-1-ylamino)methyl)-4,6-dimethyl-2(1H)-one], with 91 nM; and `CCN(c1cc(-c2ccccc2)cc2c(NCc3c(C)cc(C)[nH]c3=O)nccc12)C1CCC(N(C)C)CC1` (stereo not drawn) [Compound Z-75], with 128 nM. `CCN(c1cc(C(N)=O)cc2c(NCc3c(C)cc(C)[nH]c3=O)nccc12)C1CCC(N(C)C)CC1` (stereo not drawn) [Compound Z-21]: the IC50 under setting [2] came to 205 nM.

Consider `CCN(c1cc(N2CCN(C)CC2)cc2c(NCc3c(C)cc(C)[nH]c3=O)nccc12)C1CCC(N(C)C)CC1` (stereo not drawn) [Compound Z-187], for which the IC50 under setting [1] came out at 213 nM.

Take `CCN(c1cc(-c2nccn2C)cc2c(NCc3c(C)cc(C)[nH]c3=O)nccc12)C1CCOCC1` [Compound Z-117]: under setting [1], the IC50 came to 348 nM. Still for that read-out and setting: then `CCN(c1cc(-c2ccc(Oc3ccncc3)cc2)cc2c(NCc3c(C)cc(C)[nH]c3=O)nccc12)C1CCC(N(C)C)CC1` (stereo not drawn) [Compound Z-83], with 244 nM. `CCN(c1cc(C(C)C)cc2c(NCc3c(C)cc(C)[nH]c3=O)nccc12)[C@H]1CC[C@H](N(C)C)CC1` [Compound Z-214]: under setting [1], the 50% inhibitory concentration (IC50) worked out at 373 nM. The same measure, in the same setting: with `CCN(c1cc(C(N)=O)cc2c(NCc3c(C)cc(C)[nH]c3=O)nccc12)C1CCOCC1` [Compound Z-18] the figure was 284 nM; with `CCN(c1cc(-c2cnc(N3CCN(C)CC3)nc2)cc2c(NCc3c(C)cc(C)[nH]c3=O)nccc12)C1CCC(C)(O)CC1` (stereo not drawn) [Compound Z-221, 3-((5-(ethyl(4-hydroxy-4-methylcyclohexyl)amino)-7-(2-(4-methylpiperazin-1-yl)pyrimidin-5-yl)isoquinolin-1-ylamino)methyl)-4,6-dimethyl pyridin-2(1H)-one], 194 nM.

As to `CCN(c1cc(-c2cccnc2)cc2c(NCc3c(C)cc(C)[nH]c3=O)nccc12)C1CCN(C(C)C)CC1` [Compound Z-68], the IC50 under setting [1] was determined as 150 nM. On the same count and under the same terms, then `CCN(c1cc(C(=O)NC2CCN(C)CC2)cc2c(NCc3c(C)cc(C)[nH]c3=O)nccc12)C1CCC(N(C)C)CC1` (stereo not drawn) [Compound Z-172], with 81 nM; and `CCN(c1cc(-c2ccc(CN3CCOCC3)cc2)cc2c(NCc3c(C)cc(C)[nH]c3=O)nccc12)C1CCC(NC(C)=O)CC1` (stereo not drawn) [Compound Z-33], with 145 nM. Still for that read-out and setting: then `CCN(c1cc(C#CCN2CCOCC2)cc2c(NCc3c(C)cc(C)[nH]c3=O)nccc12)C1CCN(C(C)=O)CC1` [Compound Z-181], with 226 nM; and `CCN(c1cc(-c2ccc(CN3CCOCC3)cc2)cc2c(NCc3c(C)cc(C)[nH]c3=O)nccc12)C1CCC(O)CC1` (stereo not drawn) [Compound Z-88], with 164 nM; and `CCN(c1cc(-c2cnn(C)c2)cc2c(NCc3c(C)cc(C)[nH]c3=O)nccc12)C1CCOCC1` [Compound Z-7, 3-((5-(ethyl (tetrahydro-2H-pyran-4-yl)amino)-7-(1-methyl-1H-pyrazol-4-yl)isoquinoline-1-ylamino)methyl)-4,6-dimethylpyridin-2(1H)-one], with 481 nM. The same measure, in the same setting: with `CCN(c1cc(-c2ccc(N3CCNCC3)nc2)cc2c(NCc3c(C)cc(C)[nH]c3=O)nccc12)C1CCOCC1` [Compound Z-151] the figure was 50 nM.

Consider `CCN(c1cc(Cl)cc2c(NCc3c(C)cc(C)nc3O)nccc12)C1CC2CNCC2C1` (stereo not drawn) [Compound Z-9, 3-((7-chloro-5-(ethyl (octahydrocyclopenta[c]pyrrol-5-yl)amino)isoquinolin-1-ylamino)methyl)-4,6-dimethylpyridine-2-ol], for which, under setting [1], the concentration for half-maximal inhibition (IC50) came out at 57 nM.

With `CCN(c1cc(-c2ccc(N3CCN(C)CC3)nc2)cc2c(NCc3c(C)cc(C)[nH]c3=O)nccc12)C1CCN(C(C)=O)CC1` [Compound Z-57], the IC50 under setting [1] turned out to be 86 nM. The same measure, in the same setting: then `CCN(c1cc(Cl)cc2c(NCc3c(C)cc(C)[nH]c3=O)nccc12)C1CC2(CNC2)C1` [Compound Z-207], with 32 nM; and `CCN(c1cc(C(=O)N2CCOCC2)cc2c(NCc3c(C)cc(C)[nH]c3=O)nccc12)C1CCOCC1` [Compound Z-167], with 453 nM. The same measure, in the same setting: with `CCN(c1cc(-c2cnc(N3CCOCC3)nc2)cc2c(NCc3c(C)cc(C)[nH]c3=O)nccc12)C1CCN(C(C)C)CC1` [Compound Z-62] the figure was 80 nM; with `CCN(c1cc(-c2cnn(C3CCN(C)CC3)c2)cc2c(NCc3c(C)cc(C)[nH]c3=O)nccc12)C1CCC(N(C)C)CC1` (stereo not drawn) [Compound Z-79], 45 nM; with `CCN(c1cc(-c2ccc(N3CCN(C)CC3)nc2)cc2c(NCc3c(C)cc(C)[nH]c3=O)nccc12)C1CCN(CCOC)CC1` [Compound Z-81], 53 nM.

With `CCN(c1cc(-c2cnn(C)c2)cc2c(NCc3c(C)cc(C)[nH]c3=O)nccc12)[C@H]1CC[C@H](N(C)C)CC1` [Compound Z-38], under setting [1], the 50% inhibitory concentration (IC50) is 138 nM. The same measure, in the same setting: with `CCN(c1cc(C(=O)Nc2cccnc2)cc2c(NCc3c(C)cc(C)[nH]c3=O)nccc12)C1CCOCC1` [Compound Z-162] the figure was 253 nM; with `CCN(c1cc(-c2ccc(CN3CCN(C)CC3)cc2)cc2c(NCc3c(C)cc(C)[nH]c3=O)nccc12)C1CCOCC1` [Compound Z-29], 157 nM; with `CCN(c1cc(-c2ccc(CN3CCNCC3)nc2)cc2c(NCc3c(C)cc(C)[nH]c3=O)nccc12)C1CCC(N(C)C)CC1` (stereo not drawn) [Compound Z-154], 19 nM.

Take `CCN(c1cc(-c2ccc(N3CCN(C)CC3)nc2)cc2c(NCc3c(C)cc(C)[nH]c3=O)nccc12)C1CCNCC1` [Compound Z-56]: the concentration for half-maximal inhibition (IC50) under setting [1] was 7 nM.

In the case of `CCN(c1cc(Cl)cc2c(NCc3c(C)cc(C)[nH]c3=O)nccc12)C1CCN(C(=O)CO)CC1` [Compound Z-176], the 50% inhibitory concentration (IC50) under setting [1] came out at 139 nM. On the same count and under the same terms, with `CCN(c1cc(Cl)cc2c(NCc3c(C)cc(C)nc3O)nccc12)[C@H]1CC[C@H](N2CC(OC)C2)CC1` [Compound Z-149] the figure was 159 nM; with `CCN(c1cc(-c2ccc(N3CCNCC3)nc2)cc2c(NCc3c(C)cc(C)[nH]c3=O)nccc12)C1CCC(O)CC1` (stereo not drawn) [Compound Z-159], 21 nM.

Regarding `CCN(c1cc(-c2ccc(N3CCN(C)CC3)nc2)cc2c(NCc3c(C)cc(C)[nH]c3=O)nccc12)C1CCN(C)CC1` [Compound Z-50], the IC50 under setting [1] stood at 26 nM. The same measure, in the same setting: then `CCN(c1cc(N2CCN(C3CCOCC3)CC2)cc2c(NCc3c(C)cc(C)[nH]c3=O)nccc12)C1CCC(N(C)C)CC1` (stereo not drawn) [Compound Z-189], with 307 nM; and `CCN(c1cc(C#N)cc2c(NCc3c(C)cc(C)[nH]c3=O)nccc12)C1CCOCC1` [Compound Z-6, 1-((4,6-dimethyl-2-oxo-1,2-dihydropyridin-3-yl)methylamino)-5-(ethyl (tetrahydro-2H-pyran-4-yl)amino)isoquinoline-7-carbonitrile], with 611 nM. Still for that read-out and setting: then `CCN(c1cc(C(F)(F)F)cc2c(NCc3c(C)cc(C)[nH]c3=O)nccc12)C1CCOCC1` [Compound Z-16, 3-((5-(ethyl (tetrahydro-2H-pyran-4-yl)amino)-7-(trifluoromethyl)isoquinolin-1-ylamino)methyl)-4,6-dimethyl-2(1H)-one], with 428 nM.

As for `CCN(c1cc(Oc2cccnc2)cc2c(NCc3c(C)cc(C)[nH]c3=O)nccc12)[C@H]1CC[C@H](N(C)C)CC1` [Compound Z-188], the IC50 under setting [2] worked out at 112 nM.
